Results from patent US9475766B2, “Substituted aromatic sulfur compounds and methods of their use” (Cephalon, Inc., priority 2011, dated 2016).
Counter-ions that a name gives are not always drawn.

Tests used:
[1] = system: SU86 pancreatic cancer cell line (Su.86.86); test: Cell survival and adhesion assay (luciferase), SU86; assay type: cell-based; conditions: 5 hours, SU86 cells overlayed onto human mesothelial cell monolayers, read-out: relative reduction in Luciferase activity, SU86 10 μM
Outline: (§1)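 Luciferase-expressing tumour cells (10^5) were overlaid on confluent human mesothelial cell monolayers together with compound or DMSO for 5 hours. Non-adherent cells were washed off; adherent, surviving cells were lysed, protein-normalised and quantified by firefly luciferase luminescence.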

[2] = system: BxPC3 pancreatic cell line; test: Cell survival and adhesion assay (luciferase), BxPC3; assay type: cell-based; conditions: BXPC-3, 5 hours, BxPC3 cells overlayed onto human mesothelial cell monolayers, read-out: relative reduction in Luciferase activity, BxPC3 10 μM
Outline: as §1

[3] = system: A2780 ovarian cancer cell line; test: Cell survival and adhesion assay (luciferase), A2780; assay type: cell-based; conditions: 5 hours, A2780 cells overlayed onto human mesothelial cell monolayers, read-out: relative reduction in Luciferase activity, A2780 10 μM
Outline: as §1

[4] = system: HT29 colon cancer cell line; test: Cell survival and adhesion assay (luciferase), HT29; assay type: cell-based; conditions: HT-29, 5 hours, HT29 cells overlayed onto human mesothelial cell monolayers, read-out: relative reduction in Luciferase activity, HT29 10 μM
Description: SU86 is a pancreatic cancer cell line. HT29 is a colon cancer cell line. BxPC3 is a pancreatic cell line. A2780 is an ovarian cancer cell line.
BxPc-3 and Su.86.86 pancreatic and HT-29 colon and A2780 ovarian cancer cell lines were purchased from ATCC and cultured in DMEM supplemented with 10% fetal bovine serum, glutamine, penicillin, and streptomycin. All cells were cultured at 37° C. in a humidified incubator in a 5% CO2 atmosphere. The cancer cell lines were transduced with a retrovirus containing pLuc-puro, a constitutive luciferase reporter and selected in […] media. Transient transfection of a full-length human c-FLIP construct in the vector pcDNA3 was performed as previously described. Scaife et al. Cancer Research 2002, 62: 6870-78.
Pancreatic cancer cell cultures (BxPc-3 and Su.86.86) and colon cancer (HT-29) and ovarian cancer (A2780) cells that were stably transfected with a firefly luciferase construct were transiently suspended with trypsin-PBS. 10^5 cells were overlayed onto confluent monolayers of human mesothelial cells in 96-well plates while simultaneously adding various concentrations of compounds of the invention or DMSO for 5 hours. The non-adherent cells were carefully washed away from the wells twice with 100 μl/well of blocking buffer (1% BSA in PBS) and twice again with ice-cold PBS. Adherent and surviving cells were detected by luciferase activity in a luminometer as follows. The cells were lysed in 0.1% TritonX-100, 25 mM Gly-Gly (7.8), MgSO4, 4 mM EGTA, 1 mM DTT. The total protein concentration was normalized with lysis buffer. 50 μl of cell lysate was added per well of a 96-well microtiter plate. 50 μl of luciferin substrate (Promega) was added per well and then the light output determined in a luminometer.

Compound	inhibition at 10 µM [1] [%]	inhibition at 10 µM [2] [%]	inhibition at 10 µM [3] [%]	melting point [°C]	inhibition at 10 µM [4] [%]
CC(C)(C(=O)N1CCc2ccccc2C1)c1ccc(S(=O)(=O)/C=C/C#N)cc1 [Example 20, (E)-3-{4-[2-(3,4-Dihydro-1H-isoquinolin-2-yl)-1,1-dimethyl-2-oxo-ethyl]-benzenesulfonyl}-acrylonitrile]	50 to 85	> 85	> 85	54 to 60	–
C/C=C/S(=O)(=O)c1ccc(C(C)(C)C)cc1 [Example 56, 1-tert-Butyl-4-[((E)-prop-1-ene)-1-sulfonyl]-benzene]	< 10	< 10	< 10	80	< 10
C=C(c1ccccc1)S(=O)(=O)c1ccc(C(C)(C)C)cc1 [Example 58, 1-tert-Butyl-4-(1-phenyl-ethenesulfonyl)-benzene]	10 to 50	50 to 85	< 10	99	10 to 50
CC(C)(C)c1ccc(S(=O)(=O)/C=C/c2ccccc2)cc1 [Example 57, 1-tert-Butyl-4-((E)-2-phenyl-ethenesulfonyl)-benzene]	< 10	< 10	< 10	95	< 10
CC(C)(C(=O)NC1CCCCC1)c1ccc(S(=O)(=O)/C=C/C#N)cc1 [Example 12, 2-[4-((E)-2-Cyano-ethenesulfonyl)-phenyl]-N-cyclohexyl-isobutyramide]	50 to 85	50 to 85	50 to 85	191 to 193	< 10
COc1ccc(NC(=O)C(C)(C)c2ccc(S(=O)(=O)/C=C/C#N)cc2)cc1 [Example 23, 2-[4-((E)-2-Cyano-ethenesulfonyl)-phenyl]-N-(4-methoxy-phenyl)-isobutyramide]	50 to 85	50 to 85	> 85	123 to 126	–
CC(C)(C(=O)NCc1ccc(-n2cccn2)cc1)c1ccc(S(=O)(=O)/C=C/C#N)cc1 (as salt: trifluoroacetic acid salt) [Example 21, 2-[4-((E)-2-Cyano-ethenesulfonyl)-phenyl]-N-(4-pyrazol-1-yl-benzyl)-isobutyramide]	–	–	–	47 to 53	–
CCOC(=O)/C=C/S(=O)(=O)c1ccc(C(C)(C)C)cc1 [Example 59, (E)-3-(4-tert-Butyl-benzenesulfonyl)-acrylic acid ethyl ester]	10 to 50	50 to 85	50 to 85	88 to 91	10 to 50
CC(C)(C)c1ccc(S(=O)(=O)/C=C/C(N)=O)cc1 [Example 55, (E)-3-(4-tert-Butyl-benzenesulfonyl)-acrylamide]	10 to 50	50 to 85	10 to 50	151	10 to 50
CC(C)(C(=O)NCc1ccccn1)c1ccc(S(=O)(=O)/C=C/C#N)cc1 [Example 7, 2-[4-((E)-2-Cyano-ethenesulfonyl)-phenyl]-N-pyridin-2-ylmethyl-isobutyramide]	10 to 50	10 to 50	10 to 50	–	< 10
